From patent US7247649B2, “Oxazoles, their manufacture and use as pharmaceutical agents” (Hoffmann-La Roche Inc., priority 2003, dated 2007)

Legend:
[1] = test system: A549 cells (human lung carcinoma cell line); assay: A549 MTT cell proliferation assay (HER-signalling pathway inhibitors); type: cell-based; conditions: for IC50: Homo sapiens, A549 cells, 5 days (120 h) incubation, MTT readout at 550 nm, 3 μM to 0.15 nM; for activity (in words): reference compound in the A549 biological assay
Experimental: A549 cells (human lung carcinoma cell line) were cultivated in RPMI 1640, 2.5% FCS, 2 mM Glutamine, 100 u/ml Penicillin, 100 μg/ml Streptomycin. For the assay the cells were seeded in 384 well plates, 900 cells per well, in the same medium. The next day compounds (dissolved 10 mM in DMSO) were added in various concentrations ranging from 3 μM to 0.15 nM (10 concentrations, 1:3 diluted). After 5 days the MTT assay was done mainly according to the instructions of the manufacturer (Cell proliferation kit I, MTT, from Roche Molecular Biochemicals). In brief: MTT labeling reagent was added to a final concentration of 0.5 mg/ml, added and incubated for 4 hrs at 37 C, 5% CO2. During this incubation time purple formazan crystals are formed. After addition of the solubilization solution (20% SDS in 0.02 M HCl) the plates were incubated overnight at 37° C., 5% CO2. After careful mixing plates were measured in Victor 2 (scanning multiwell spectrophotometer, Wallac) at 550 nm.
A decrease in number of living cells results in a decrease in the total metabolic activity in the sample. The decrease directly correlates to the amount of purple color resulting from the solubilization of the purple formazan crystals.
A549: 900 cells in 60 μl per well of 384 well plate (Greiner)
Medium: RPMI 1640, 2.5% FCS, glutamine, pen/strep.
Induction: • Dilution of compound in DMSO: 3 μl 10 mM+27 μl DMSO, dilute 1:3 • Add 2 μl of compound dilution row to 95 ul of medium • Add 10 μl of compound dilution to 60 μl medium in test plate→0.3% DMSO per well • Incubate 120 h (5 days) at 37° C., 5% CO2
Analysis: • Add 7 μl MTT (5 mg 7 ml/well), incubate 4 h at 37° C. • Add 30 μl lysis buffer (20% SDS, 0.04 N HCl) per well • Incubate overnight at 37° C.
Measurement: • Victor 2, 550 nm • Determination of IC50 was done using XL-fit.

| SMILES | IC50 [1] [nM] | activity (in words) [1] | melting point [°C] |
| --- | --- | --- | --- |
| Fc1cc(/C=C/c2nc(COc3ccc(CCCCn4ccnn4)cc3)co2)ccc1Cl [Example 1, 1-[4-(4-{2-[2-(E)-(4-Chloro-3-fluoro-phenyl)-vinyl]-oxazol-4-ylmethoxy}-phenyl)-butyl]1H-[1,2,3]triazole] | 460 | do not have reasonable activity | 146 to 149 |
| Fc1cc(Cl)ccc1/C=C/c1nc(COc2ccc(CCCCn3ccnn3)cc2)co1 [Example 2, 1-[4-(4-{2-[2-(E)-(4-Chloro-2-fluoro-phenyl)-vinyl]-oxazol-4-ylmethoxy}-phenyl)-butyl]-1H-[1,2,3]triazole] | < 5 |  |  |
| Fc1cc(C(F)(F)F)ccc1/C=C/c1nc(COc2ccc(CCCCn3ccnn3)cc2)co1 [Example 3, 1-[4-(4-{2-[2-(E)-(2-Fluoro-4-trifluoromethyl-phenyl)-vinyl]-oxazol-4-ylmethoxy}-phenyl)-butyl]-1H-[1,2,3]triazole] | 2 |  |  |
| FC(F)(F)c1cccc(/C=C/c2nc(COc3ccc(CCCCn4ccnn4)cc3)co2)c1 [Example 4, 1-[4(4-{2-[2-(E)-(3-Trifluoromethyl-phenyl)-vinyl]-oxazol-4-ylmethoxy}-phenyl)-butyl]-1H-[1,2,3]triazole] | 3550 | inactive |  |
| Clc1ccc(/C=C/c2nc(COc3ccc(CCCCn4ccnn4)cc3)co2)cc1Cl [Example 5, 1-[4-(4-{2-[2-(E)-(3,4-Dichloro-phenyl)-vinyl]-oxazol-4-ylmethoxy}-phenyl)-butyl]-1H-[1,2,3]triazole] | 900 | do not have reasonable activity |  |
| FC(F)(F)c1ccc(C=Cc2nc(COc3ccc(CCCCn4ccnn4)cc3)co2)cc1 [reference, 1-[4-(4-{2-[2-(4-trifluoromethyl-phenyl)-vinyl]-oxazol-4-ylmethoxy}-phenyl)-butyl]-1H-[1,2,3]triazole, reference compound] | 7 | less activity than the compounds of the present invention |  |
